In patent US9499550B2 (BRISTOL-MYERS SQUIBB COMPANY, priority 2012, dated 2016):

Tests used:
[1] = system: HCV genotype 1a (H77 strain) replicon in HUH-7 cells; assay: HCV replicon luciferase reporter assay, genotype 1a; format: cell-based; conditions: Hepatitis C virus, Huh-7, 72 h, HCV genotype 1a replicon luciferase assay, 3 days incubation, range class, read-out: LE_1a (EC50, range)
In short: (§1)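 Replicon inhibition for both genotypes was measured as Renilla luciferase signal (EnduRen, 7.5 μM final, 2 h) after 3-day, 37° C exposure of replicon-bearing HUH-7 cells in 4% FCS DMEM, 0.5% DMSO. The 1b construct carries S1179I; the 1a H77 construct carries P1496L and S2204I. Twenty-point, 3-fold dilutions were fitted four-parametrically for EC50, and CC50 was taken from multiplexed Cell Titer-Blue.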

[2] = system: HCV genotype 1b (Con1) replicon in HUH-7 cells; assay: HCV replicon luciferase reporter assay, genotype 1b; format: cell-based; conditions: Hepatitis C virus, Huh-7, 72 h, HCV genotype 1b replicon luciferase assay, 3 days incubation, range class, read-out: LE_1b (EC50, range)
In short: as §1

Row | SMILES | EC50 [1] | EC50 [2]
1 | CCCOc1cc2c(Cl)cccc2c(O[C@@H]2C[C@H]3C(=O)N[C@]4(C(=O)NS(=O)(=O)C5CC5)C[C@H]4/C=C\CC[C@@H](C)C[C@@H](C)[C@H](NC(=O)OC(C)(C)C(F)(F)F)C(=O)N3C2)n1 [Compound 1084, 1,1,1-trifluoro-2-methylpropan-2-yl((2R,6S,7R,9R,13aS,14aR,16aS,Z)-2-((5-chloro-3-propoxyisoquinolin-1-yl)oxy)-14a-((cyclopropylsulfonyl)carbamoyl)-7,9-dimethyl-5,16-dioxo-1,2,3,5,6,7,8,9,10,11,13a,14,14a,15,16,16a-hexadecahydrocyclopropa[e]pyrrolo[1,2-a][1,4]diazacyclopentadecin-6-yl)carbamate] | < 5.46 nM | < 5.46 nM
2 | CCCOc1cc2c(Cl)cccc2c(O[C@@H]2C[C@H]3C(=O)N[C@]4(C(=O)NS(=O)(=O)C5CC5)C[C@H]4/C=C\CC[C@H](C)C[C@@H](C)[C@H](NC(=O)OC4C[C@@H]5C[C@H]5C4)C(=O)N3C2)n1 [Compound 1085, (1S,5S)-bicyclo[3.1.0]hexan-3-yl((2R,6S,7R,9S,13aS,14aR,16aS,Z)-2-((5-chloro-3-propoxyisoquinolin-1-yl)oxy)-14a-((cyclopropylsulfonyl)carbamoyl)-7,9-dimethyl-5,16-dioxo-1,2,3,5,6,7,8,9,10,11,13a,14,14a,15,16,16a-hexadecahydrocyclopropa[e]pyrrolo[1,2-a][1,4]diazacyclopentadecin-6-yl)carbamate] | < 5.46 nM | < 5.46 nM
3 | CCCOc1cc2c(Cl)cccc2c(O[C@@H]2C[C@H]3C(=O)N[C@]4(C(=O)NS(=O)(=O)C5CC5)C[C@H]4/C=C\CC[C@@H](C)C[C@@H](C)[C@H](NC(=O)OC4C[C@@H]5C[C@H]5C4)C(=O)N3C2)n1 [Compound 1086, (1S,5S)-bicyclo[3.1.0]hexan-3-yl((2R,6S,7R,9R,13aS,14aR,16aS,Z)-2-((5-chloro-3-propoxyisoquinolin-1-yl)oxy)-14a-((cyclopropylsulfonyl)carbamoyl)-7,9-dimethyl-5,16-dioxo-1,2,3,5,6,7,8,9,10,11,13a,14,14a,15,16,16a-hexadecahydrocyclopropa[e]pyrrolo[1,2-a][1,4]diazacyclopentadecin-6-yl)carbamate] | < 5.46 nM | < 5.46 nM
4 | CCCOc1cc2c(Cl)cccc2c(O[C@@H]2C[C@H]3C(=O)N[C@]4(C(=O)NS(=O)(=O)C5(C)CC5)C[C@H]4/C=C\CC[C@H](C)C[C@@H](C)[C@H](NC(=O)OC4C[C@@H]5C[C@H]5C4)C(=O)N3C2)n1 [Compound 1087, (1S,5S)-bicyclo[3.1.0]hexan-3-yl((2R,6S,7R,9S,13aS,14aR,16aS,Z)-2-((5-chloro-3-propoxyisoquinolin-1-yl)oxy)-7,9-dimethyl-14a-(((1-methylcyclopropyl)sulfonyl)carbamoyl)-5,16-dioxo-1,2,3,5,6,7,8,9,10,11,13a,14,14a,15,16,16a-hexadecahydrocyclopropa[e]pyrrolo[1,2-a][1,4]diazacyclopentadecin-6-yl)carbamate] | 4.82 to 103 nM | < 5.46 nM
5 | CCCOc1cc2c(Cl)cccc2c(O[C@@H]2C[C@H]3C(=O)N[C@]4(C(=O)NS(=O)(=O)C5(C)CC5)C[C@H]4/C=C\CC[C@@H](C)C[C@@H](C)[C@H](NC(=O)OC4C[C@@H]5C[C@H]5C4)C(=O)N3C2)n1 [Compound 1088, (1S,5S)-bicyclo[3.1.0]hexan-3-yl((2R,6S,7R,9R,13aS,14aR,16aS,Z)-2-((5-chloro-3-propoxyisoquinolin-1-yl)oxy)-7,9-dimethyl-14a-(((1-methylcyclopropyl)sulfonyl)carbamoyl)-5,16-dioxo-1,2,3,5,6,7,8,9,10,11,13a,14,14a,15,16,16a-hexadecahydrocyclopropa[e]pyrrolo[1,2-a][1,4]diazacyclopentadecin-6-yl)carbamate] | < 5.46 nM | < 5.46 nM
